Results on 14 compounds are retold here after ChEMBL document CHEMBL5113380, “Functionalized quinoxalinones as privileged structures with broad-ranging pharmacological activities” (Eur J Med Chem, 2022).

Data set [1] concerns Rattus norvegicus. Nature of the data set: Antiinflammatory activity in rat model of hind paw edema assessed as paw thickness at 0.9 mg per 100 g of body weight measured after 4 hrs. Type of data set: functional.
The nature of data set [2]: Inhibition of lipid peroxidation at 10 uM by measuring MDA concentration. Type of data set: functional. Also on record: scale not given: the % may be the effect or the level left.
Data set [3] can be described thus: Antioxidant activity assessed as DPPH radical scavenging activity at 50 uM. Type of data set: functional. For orientation: The DPPH test is a chemical assay of radical scavenging.
Data set [4] is described as follows: Inhibition of lipid peroxidation at 100 uM by measuring MDA concentration. The data set is classed as functional. Also on record: Activity: scale not given: the % may be the effect or the level left.
Data set [5] in a line: Inhibition of ALR2 (unknown origin). Also on record: species or system Homo sapiens.
Data set [6] can be described thus: Antioxidant activity assessed as DPPH radical scavenging activity at 100 uM. Type of data set: functional.
Data set [7] is described as follows: Inhibition of ALR1 (unknown origin) relative to control. Also on record: concentration or dose not given beside the values. To be noted: Homo sapiens; concentration not given here.
Data set [8] is filed under the species Homo sapiens. Nature of the data set: Binding affinity to Creatine kinase (CK) (unknown origin) relative to control.
Data set [9] is described as follows: Binding affinity to estrogen receptor (unknown origin). Also on record: species or system Homo sapiens.
Data set [10] in a line: Binding affinity to Creatine kinase (CK) (unknown origin). Also on record: species or system Homo sapiens.
A short description of data set [11]: Metabolic stability in rat liver microsomes assessed as half-life. Type of data set: ADME, Microsome. On the technique in general: Liver microsomes are vesicles of endoplasmic reticulum, rich in cytochrome P450 enzymes.
Data set [12] is filed under the species Homo sapiens. Nature of the data set: Binding affinity to estrogen receptor (unknown origin) relative to control.
Data set [13] in a line: Aqueous solubility of the compound at pH 7.4. The data set is classed as physicochemical. The note with it: buffer.
Data set [14] concerns Trichomonas vaginalis. Description: Antiprotozoal activity against Trichomonas vaginalis. The data set is classed as functional, organism-based.
In data set [15] the test system is Rattus norvegicus. Nature of the data set: Antiobesity activity in fasted Sprague-Dawley rat assessed as inhibition of food intake for more than 2 hrs when administered orally. Type of data set: functional. The note with it: route po.
Data set [16] relates to Rattus norvegicus. Nature of the data set: Antiobesity activity in fasted Sprague-Dawley rat assessed as inhibition of food intake for more than 2 hrs when administered intraperitoneally. The data set is classed as functional. To be noted: route ip.
The nature of data set [17]: Binding affinity to benzodiazepine receptor (unknown origin). Also on record: species or system Homo sapiens.
Data set [18] can be described thus: Cytotoxicity against rat myoblast L6 cells. The data set is classed as toxicity, cell-based.
Data set [19] has as its system Trypanosoma brucei. Description: Antitrypanosomal activity against Trypanosoma brucei. Type of data set: functional, organism-based.
Data set [20] in a line: Ratio IC50 for cytotoxicity against rat myoblast L6 cells over IC50 for antitrypanosomal activity against Trypanosoma brucei. The data set is classed as toxicity, cell-based. To be noted: read-out: Ratio IC50.
For data set [21], the system named is HeLa 229. Nature of the data set: Antiproliferative activity against human HeLa 229 cells after 72 hrs by MTT assay. Type of data set: functional, cell-based. To be noted: HeLa 229, 72 h. On the technique in general: Tetrazolium dyes change colour on reduction, which living cells bring about.
In data set [22] the test system is NCI-H460. Nature of the data set: Antiproliferative activity against human NCI-H460 cells after 72 hrs by MTT assay. Type of data set: functional, cell-based. To be noted: NCI-H460, 72 h.
The subject of data set [23] is B16-F10. Description: Antiproliferative activity against mouse B16-F10 cells after 72 hrs by MTT assay. Type of data set: functional, cell-based. The note with it: B16-F10, 72 h.
Data set [24] concerns HCT-116. Nature of the data set: Antiproliferative activity against human HCT-116 cells after 72 hrs by MTT assay. The data set is classed as functional, cell-based. To be noted: HCT-116, 72 h.
Data set [25] addresses Fibroblast growth factor receptor 3 (Homo sapiens, UniProt P22607). Description: Inhibition of FGFR3 (unknown origin).
In data set [26] the test system is L02. Description: Antiproliferative activity against human HL7702 cells after 72 hrs by MTT assay. To be noted: L02, 72 h. Type of data set: functional, cell-based.
For data set [27], the target named is Fibroblast growth factor receptor 1 (Homo sapiens, UniProt P11362). Nature of the data set: Inhibition of FGFR1 (unknown origin) using ULight-JAK-1 (Tyr1023) peptide as substrate incubated for 90 mins and measured after 1 hr by LANCE Ultra TR-FRET assay.
The nature of data set [28]: Metabolic stability in human liver microsomes assessed as compound remaining after 1 hr. Type of data set: ADME, Microsome. To be noted: read-out: Stability.
For data set [29], the system named is HepG2. Description: Induction of apoptosis in human HepG2 cells assessed as fold increase in caspase-9 protein level. Type of data set: functional.
Data set [30] concerns HepG2. Description: Induction of apoptosis in human HepG2 cells assessed as fold increase in caspase-3 protein level. The data set is classed as functional.
For data set [31], the target named is Vascular endothelial growth factor receptor 2 (Homo sapiens, UniProt P35968).
Data set [32] has as its system HepG2. Nature of the data set: Induction of apoptosis in human HepG2 cells assessed as fold increase in BAX/BCL-2 protein level. Type of data set: functional.
Data set [33] concerns MCF7. Description: Antiproliferative activity against human MCF7 cells. Type of data set: functional, cell-based.
For data set [34], the system named is HepG2. Description: Cell cycle arrest in human HepG2 cells assessed as fold increase in accumulation at G2/M phase. The data set is classed as functional.
The test system of data set [35] is HepG2. Nature of the data set: Antiproliferative activity against human HepG2 cells. The data set is classed as functional, cell-based.
In data set [36] the target is Glutamate receptor ionotropic AMPA (Homo sapiens, UniProt P42261+P42262+P42263+P48058). Nature of the data set: Agonist activity at AMPA receptor (unknown origin). Type of data set: protein-complex assay.
Data set [37] in a line: Displacement of [3H]flunitrazepam from GABAA/benzodiazepine receptor complex (unknown origin). Also on record: species or system Homo sapiens.
The nature of data set [38]: Partial agonist activity at GABAA/benzodiazepine receptor complex (unknown origin) measured by [35S]TBPS based functional assay. Also on record: species or system Homo sapiens.

Structures are written as SMILES. ≈ marks a conversion by molar mass, not a printed value.

Sequence of Fibroblast growth factor receptor 3 (P22607 whole entry): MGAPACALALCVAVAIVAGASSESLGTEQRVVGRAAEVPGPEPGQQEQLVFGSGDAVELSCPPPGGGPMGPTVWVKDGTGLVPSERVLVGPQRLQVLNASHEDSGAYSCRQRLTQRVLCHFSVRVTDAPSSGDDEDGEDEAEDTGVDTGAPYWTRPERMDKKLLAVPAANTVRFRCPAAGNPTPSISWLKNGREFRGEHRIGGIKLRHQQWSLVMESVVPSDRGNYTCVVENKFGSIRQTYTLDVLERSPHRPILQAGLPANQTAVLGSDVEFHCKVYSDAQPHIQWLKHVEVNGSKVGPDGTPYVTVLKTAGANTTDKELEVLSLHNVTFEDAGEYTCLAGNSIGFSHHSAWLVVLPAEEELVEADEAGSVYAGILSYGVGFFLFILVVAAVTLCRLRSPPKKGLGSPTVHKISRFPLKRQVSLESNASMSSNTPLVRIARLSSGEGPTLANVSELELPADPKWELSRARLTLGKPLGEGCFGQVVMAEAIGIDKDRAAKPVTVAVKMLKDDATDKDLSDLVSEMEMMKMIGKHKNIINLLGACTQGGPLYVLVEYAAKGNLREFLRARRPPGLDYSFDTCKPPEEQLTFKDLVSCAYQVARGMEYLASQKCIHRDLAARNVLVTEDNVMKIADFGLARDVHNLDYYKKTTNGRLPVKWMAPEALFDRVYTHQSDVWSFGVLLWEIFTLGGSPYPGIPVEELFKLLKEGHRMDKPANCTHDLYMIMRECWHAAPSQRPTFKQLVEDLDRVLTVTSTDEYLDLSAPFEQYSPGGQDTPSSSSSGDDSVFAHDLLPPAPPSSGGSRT
Sequence of Fibroblast growth factor receptor 1 (P11362 whole entry): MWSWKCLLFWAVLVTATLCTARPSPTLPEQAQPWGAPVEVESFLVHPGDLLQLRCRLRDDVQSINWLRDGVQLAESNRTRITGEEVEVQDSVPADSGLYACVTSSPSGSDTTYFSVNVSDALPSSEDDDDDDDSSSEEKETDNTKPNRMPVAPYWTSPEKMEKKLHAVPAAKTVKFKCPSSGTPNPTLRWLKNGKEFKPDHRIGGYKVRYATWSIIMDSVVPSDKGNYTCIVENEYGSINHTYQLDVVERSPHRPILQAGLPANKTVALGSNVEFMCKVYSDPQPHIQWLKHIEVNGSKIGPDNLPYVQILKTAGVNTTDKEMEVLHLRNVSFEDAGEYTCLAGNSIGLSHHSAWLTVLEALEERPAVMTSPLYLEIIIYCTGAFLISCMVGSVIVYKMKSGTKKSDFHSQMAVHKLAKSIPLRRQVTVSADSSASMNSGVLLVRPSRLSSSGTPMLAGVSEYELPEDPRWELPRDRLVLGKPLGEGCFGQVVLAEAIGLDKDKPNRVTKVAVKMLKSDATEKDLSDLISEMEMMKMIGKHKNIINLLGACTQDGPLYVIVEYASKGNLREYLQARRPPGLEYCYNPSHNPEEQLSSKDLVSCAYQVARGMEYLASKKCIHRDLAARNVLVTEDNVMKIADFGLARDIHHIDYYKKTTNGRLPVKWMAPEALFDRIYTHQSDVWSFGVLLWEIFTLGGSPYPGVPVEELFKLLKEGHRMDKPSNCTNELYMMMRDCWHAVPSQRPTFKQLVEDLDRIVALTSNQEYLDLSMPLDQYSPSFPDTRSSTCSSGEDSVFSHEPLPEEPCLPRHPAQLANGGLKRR
Sequence of Vascular endothelial growth factor receptor 2 (P35968 whole entry): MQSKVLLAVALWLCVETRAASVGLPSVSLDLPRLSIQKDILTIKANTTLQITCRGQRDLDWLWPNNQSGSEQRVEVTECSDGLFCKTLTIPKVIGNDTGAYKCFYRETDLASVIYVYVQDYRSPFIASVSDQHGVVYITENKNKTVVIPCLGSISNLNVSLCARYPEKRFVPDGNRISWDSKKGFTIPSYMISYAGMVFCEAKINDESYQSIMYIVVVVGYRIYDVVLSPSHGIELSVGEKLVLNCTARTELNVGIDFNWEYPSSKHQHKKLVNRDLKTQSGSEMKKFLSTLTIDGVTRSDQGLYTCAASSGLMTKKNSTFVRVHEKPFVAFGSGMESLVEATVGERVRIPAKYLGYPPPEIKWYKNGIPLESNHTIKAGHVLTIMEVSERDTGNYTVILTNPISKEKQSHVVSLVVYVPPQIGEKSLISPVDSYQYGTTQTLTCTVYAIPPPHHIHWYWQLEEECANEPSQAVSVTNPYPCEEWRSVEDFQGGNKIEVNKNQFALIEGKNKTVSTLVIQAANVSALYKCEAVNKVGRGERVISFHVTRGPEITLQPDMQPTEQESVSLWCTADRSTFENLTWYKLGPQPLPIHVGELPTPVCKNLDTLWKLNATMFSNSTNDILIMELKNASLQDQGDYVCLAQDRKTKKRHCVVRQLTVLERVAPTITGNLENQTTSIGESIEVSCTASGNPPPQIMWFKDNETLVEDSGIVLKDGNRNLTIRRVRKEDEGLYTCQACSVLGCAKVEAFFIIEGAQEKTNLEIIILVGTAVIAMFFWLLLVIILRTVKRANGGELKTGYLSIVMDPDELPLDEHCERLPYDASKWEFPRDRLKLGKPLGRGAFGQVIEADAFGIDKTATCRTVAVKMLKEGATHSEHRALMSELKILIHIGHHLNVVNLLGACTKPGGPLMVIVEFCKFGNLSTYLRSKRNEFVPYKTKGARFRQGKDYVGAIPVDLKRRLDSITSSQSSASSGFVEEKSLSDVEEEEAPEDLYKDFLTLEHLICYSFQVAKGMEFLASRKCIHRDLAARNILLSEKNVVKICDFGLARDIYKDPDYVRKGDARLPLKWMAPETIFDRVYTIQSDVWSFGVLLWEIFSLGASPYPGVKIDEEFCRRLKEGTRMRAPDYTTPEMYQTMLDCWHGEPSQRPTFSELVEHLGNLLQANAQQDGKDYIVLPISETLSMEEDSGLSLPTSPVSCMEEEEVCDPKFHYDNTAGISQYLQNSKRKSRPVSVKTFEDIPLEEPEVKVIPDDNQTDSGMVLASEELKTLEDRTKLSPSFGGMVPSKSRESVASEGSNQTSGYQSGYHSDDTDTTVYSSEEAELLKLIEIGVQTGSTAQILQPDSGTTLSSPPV

With `O=C(Cc1nc2ccccc2[nH]c1=O)Nn1c(-c2ccc(Cl)cc2)csc1=S`, in data set [1], the Activity is 0.45 mm.

A word on the IC50: it is the concentration that inhibits the measured activity by half. In general, inhibition refers to the percentage by which the read-out fell short of the control. As to `O=C(O)Cn1c(=O)c(Oc2cc(O)cc(O)c2)nc2ccc(Cl)cc21`, the Activity worked out at 26.6% in [2], 83.7% in [3], 55.3% in [4] and 91.3% in data set [6]. Besides, in data set [5], inhibition was half-maximal at 0.566 µM (IC50). The inhibition in data set [7] was found to be 38.2%.

The term EC50 denotes the concentration that produces a half-maximal response. A word on the half-life: it is the time needed for the level to fall by half in the phase considered. In general, solubility refers to how much of the substance goes into solution per volume. Turning to `CC[C@H]1C(=O)N(C)c2ccc(F)cc2N1C(=O)c1ccc(O)cc1O`, the results for the Activity in data set [8] and in [12] were 36% and 96%, respectively. In addition, the IC50 in data set [9] turned out to be 0.02 µM. The compound also yielded an EC50 in data set [10] of 0.169 µM. For the same compound, the half-life in data set [11] was greater than 30 min. The same compound displayed a solubility in data set [13] greater than 0.1 mg/mL.

A word on the MIC: it is the least concentration at which growth counts as inhibited. In data set [14], `CCOC(=O)C(C)c1nc2ccc(C(F)(F)F)cc2[nH]c1=O` (configuration not stated) had an MIC of 100 mg/L (≈ 318 µM).

For orientation: ED50 means the dose that gives a 50% effect, or the effect in half of the subjects. For `O=C1Nc2cc(Cl)c(Cl)cc2N2CCNC[C@H]12`, the 50% effective dose (ED50) in [15] amounted to 10 mg/kg; in [16], 2 mg/kg.

As to `O=c1[nH]c2ccccc2nc1Cc1nnc(S)n1-c1ccccc1`, the Activity in data set [1] stood at 0.47 mm.

A word on the Ki: it is a measure of affinity in units of concentration, obtained from inhibition or displacement. `Oc1nc2ccc(Cl)cc2n2nc(-c3ccccc3F)nc12` came in with a Ki in data set [17] of 0.0029 µM.

Turning to `CN1CC(=O)N(C)c2cc([N+](=O)[O-])ccc21`, the IC50 in data set [18] was 78.2 µM; in [19], 3.6 µM. In data set [20], the selectivity ratio stood at 21.6.

As for `O=c1c(/C=C/c2ccccc2Cl)nc2ccccc2n1Cc1ccccc1`, the half-inhibitory concentration (IC50) in data set [21] was greater than 50 µM; in [22], 18.1 µM; in [23], 3.39 µM; in data set [24], greater than 50 µM; in data set [25], 94.5 µM; in [26] it was greater than 100 µM. For the same compound, in data set [27], the midpoint of inhibition, the IC50, lay at 25.7 µM.

`COc1ccc(N2CCN(CCCNC(=O)Cn3c(=O)c4cccn4c4c(C)ccnc43)CC2)cc1`: the remaining at 1 h in data set [28] stood at 22%.

With `O=C1Nc2cc([N+](=O)[O-])ccc2N2CCCC12` (configuration not stated), the concentration for half-maximal inhibition (IC50) came to 46.7 µM in [18] and 2.7 µM in [19]. The selectivity ratio in [20] stood at 17.4.

`O=C(Cn1c(=O)c2nncn2c2ccccc21)Nc1ccc(C(=O)Nc2ccc(Cl)cc2)cc1`: the “fold change (FC)” value in [29] amounted to 1.82; in data set [30], 1.96; in data set [32] it was 3.81; in data set [34] it was 2.14. Moreover, the half-inhibitory concentration (IC50) is 0.0034 µM in [31], 7.2 µM in data set [33] and 4.1 µM in data set [35].

Compound `N[C@@H](Cn1c(=O)c(=O)[nH]c2ccccc21)C(=O)O` showed a 50% effective concentration (EC50) in data set [36] of 3 µM.

Regarding `CC(C)n1c(=O)c2c(-c3ccc(F)cc3)ncn2c2cccc(Cl)c21`, in data set [37], the inhibition constant (Ki) worked out at 0.0146 µM. For the same compound, the EC50 in [38] amounted to 0.00204 µM.
